From patent publication US20250171457A1, “NITROGEN-CONTAINING HETEROCYCLIC COMPOUND HAVING NRF2 ACTIVATION EFFECT” (CHUGAI SEIYAKU KABUSHIKI KAISHA, priority 2022, published 2025) come the findings set out here.

One may read the EC50 as the concentration at which the effect is half-maximal.

Molecules are shown by their SMILES.

The experiment has as its system Nrf2 transcriptional activity (pARE-Luc reporter) in HepG2 cells. Put plainly: In vitro Nrf2 transcriptional activity measurement by ARE-dependent reporter assay in HepG2 cell. The experiment is classed as cell-based, human. The settings on record: Homo sapiens; HepG2 cells transfected with pARE-Luc, 4 hours at 37° C.; luciferase activity of Example 1-54 or Example 17-23 at 3.75 μM defined as 100%. In outline:
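Luminescence readout (Bright-Glo) after 4 h, 37° C compound exposure of HepG2 cells carrying the ARE-luciferase vector pGL4.37. Each well converted to % response versus reference compound at 3.75 μM, and EC50 derived from dose-response curves.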
A general note: A reporter such as luciferase makes a cellular process visible.
As for `O=C(O)c1cc(F)c(-c2cccc3c2OCN(C(=O)c2c(Cl)cc(N4CC5(CC(OC6CC6)C5)C4)cc2Cl)C3)cc1N1C2CCC1COC2` [Compound 11-10, 4-[3-[2,6-Dichloro-4-(6-cyclopropyloxy-2-azaspiro[3.3]heptan-2-yl)benzoyl]-2,4-dihydro-1,3-benzoxazin-8-yl]-5-fluoro-2-(3-oxa-8-azabicyclo[3.2.1]octan-8-yl)benzoic acid], the EC50 came out at 3.8 nM. Under `CN(Cc1ccon1)c1cc(-c2cccc3c2OCN(C(=O)c2c(Cl)cc(-c4cnn(C)c4)cc2Cl)C3)c(F)cc1C(=O)O` [Compound 12-1, 4-[3-[2,6-Dichloro-4-(1-methylpyrazol-4-yl)benzoyl]-2,4-dihydro-1,3-benzoxazin-8-yl]-5-fluoro-2-[methyl(1,2-oxazol-3-ylmethyl)amino] benzoic acid] stands 11 nM; under `Cn1cc(-c2cc(Cl)c(C(=O)N3COc4c(cccc4-c4cc(N5CC6CCC(C5)O6)c(C(=O)O)cc4F)C3)c(Cl)c2)cn1` [Compound 12-2, 4-[3-[2,6-Dichloro-4-(1-methylpyrazol-4-yl)benzoyl]-2,4-dihydro-1,3-benzoxazin-8-yl]-5-fluoro-2-(8-oxa-3-azabicyclo[3.2.1]octan-3-yl)benzoic acid], 2.6 nM. The value for `CO[C@H]1CN(c2cc(-c3cccc4c3OCN(C(=O)c3c(Cl)cc(-c5cnn(C)c5)cc3Cl)C4)c(F)cc2C(=O)O)[C@H]1C` [Compound 12-3, 4-[3-[2,6-Dichloro-4-(1-methylpyrazol-4-yl)benzoyl]-2,4-dihydro-1,3-benzoxazin-8-yl]-5-fluoro-2-[(2S,3S)-3-methoxy-2-methylazetidin-1-yl]benzoic acid] was 6 nM; that for `CN(c1cc(-c2cccc3c2OCN(C(=O)c2c(Cl)cc(-c4cnn(C)c4)cc2Cl)C3)c(F)cc1C(=O)O)C1COC1` [Compound 12-4, 4-[3-[2,6-Dichloro-4-(1-methylpyrazol-4-yl)benzoyl]-2,4-dihydro-1,3-benzoxazin-8-yl]-5-fluoro-2-[methyl(oxetan-3-yl)amino]benzoic acid] was 15 nM; that for `Cn1cc(-c2cc(Cl)c(C(=O)N3COc4c(cccc4-c4cc(N5C6CCC5COC6)c(C(=O)O)cc4F)C3)c(Cl)c2)cn1` [Compound 13-1, 4-[3-[2,6-Dichloro-4-(1-methylpyrazol-4-yl)benzoyl]-2,4-dihydro-1,3-benzoxazin-8-yl]-5-fluoro-2-(3-oxa-8-azabicyclo[3.2.1]octan-8-yl)benzoic acid] was 7.1 nM.

`Cn1cc(-c2cc(Cl)c(C(=O)N3Cc4cccc(-c5ccc(C(=O)O)c(N6CCOCC6)c5)c4CN3)c(Cl)c2)cn1` [Compound 13-2, 4-[2-[2,6-Dichloro-4-(1-methylpyrazol-4-yl)benzoyl]-3,4-dihydro-1H-phthalazin-5-yl]-2-morpholin-4-ylbenzoic acid] showed an EC50 of 18 nM.

Consider `Cc1c(F)c(-c2cccc3c2OCN(C(=O)c2c(Cl)cc(-c4cnn(C)c4)cc2Cl)C3)cc(N2CCOCC2)c1C(=O)O` [Compound 13-3, 4-[3-[2,6-Dichloro-4-(1-methylpyrazol-4-yl)benzoyl]-2,4-dihydro-1,3-benzoxazin-8-yl]-3-fluoro-2-methyl-6-morpholin-4-ylbenzoic acid], for which the concentration giving a half-maximal response (EC50) came out at 5.3 nM.

`Cn1cc(-c2cc(Cl)c(C(=O)N3COc4c(cccc4-c4c(F)cc(C(=O)O)c(N5CCOCC5)c4F)C3)c(Cl)c2)cn1` [Compound 13-4, 4-[3-[2,6-Dichloro-4-(1-methylpyrazol-4-yl)benzoyl]-2,4-dihydro-1,3-benzoxazin-8-yl]-3,5-difluoro-2-morpholin-4-ylbenzoic acid] showed an EC50 of 24 nM. On to `Cn1cc(-c2cc(Cl)c(C(=O)N3COc4c(cccc4-c4ccc(C(=O)O)c(N5CCOCC5)c4F)C3)c(Cl)c2)cn1` [Compound 13-5, 4-[3-[2,6-Dichloro-4-(1-methylpyrazol-4-yl)benzoyl]-2,4-dihydro-1,3-benzoxazin-8-yl]-3-fluoro-2-morpholin-4-ylbenzoic acid], for which the concentration for a half-maximal effect (EC50) worked out at 16 nM. The value for `Cn1ncc2c(Cl)c(C(=O)N3COc4c(cccc4-c4ccc(C(=O)O)c(N5CCOCC5)c4)C3)ccc21` [Compound 13-6, 4-[3-(4-Chloro-1-methylindazole-5-carbonyl)-2,4-dihydro-1,3-benzoxazin-8-yl]-2-morpholin-4-ylbenzoic acid] was 7.5 nM.

The molecule `COc1cc(Cl)c(C(=O)N2COc3c(cccc3-c3cc(N4CCOCC4)c(C(=O)O)cc3F)C2)cc1F` [Compound 13-7, 4-[3-(2-Chloro-5-fluoro-4-methoxybenzoyl)-2,4-dihydro-1,3-benzoxazin-8-yl]-5-fluoro-2-morpholin-4-ylbenzoic acid] displayed a half-maximal effective concentration (EC50) of 6.7 nM.

Turning to `Cn1cc(-c2cc(Cl)c(C(=O)N3COc4c(ccc(F)c4-c4cc(N5CCOCC5)c(C(=O)O)cc4F)C3)c(Cl)c2)cn1` [Compound 13-8, 4-[3-[2,6-Dichloro-4-(1-methylpyrazol-4-yl)benzoyl]-7-fluoro-2,4-dihydro-1,3-benzoxazin-8-yl]-5-fluoro-2-morpholin-4-ylbenzoic acid], the concentration giving a half-maximal response (EC50) came to 5.4 nM.

Take `Cn1cc(-c2cc(Cl)c(C(=O)N3COc4c(ccc(F)c4-c4ccc(C(=O)O)c(N5CCOCC5)c4)C3)c(Cl)c2)cn1` [Compound 13-9, 4-[3-[2,6-Dichloro-4-(1-methylpyrazol-4-yl)benzoyl]-7-fluoro-2,4-dihydro-1,3-benzoxazin-8-yl]-2-morpholin-4-ylbenzoic acid]: the response was half-maximal at 5.2 nM (EC50).

Take `Cn1cc(-c2cc(Cl)c(C(=O)N3COc4c(cccc4-c4cc(N5CCOCC5)c(C(=O)O)cc4F)C3)cn2)cn1` [Compound 13-10, 4-[3-[4-Chloro-6-(1-methylpyrazol-4-yl)pyridine-3-carbonyl]-2,4-dihydro-1,3-benzoxazin-8-yl]-5-fluoro-2-morpholin-4-ylbenzoic acid]: the EC50 worked out at 17 nM. In turn, `Cn1ccc2cc(C(=O)N3COc4c(cccc4-c4cc(N5CCOCC5)c(C(=O)O)cc4F)C3)c(Cl)cc21` [Compound 13-11, 4-[3-(6-Chloro-1-methylindole-5-carbonyl)-2,4-dihydro-1,3-benzoxazin-8-yl]-5-fluoro-2-morpholin-4-ylbenzoic acid] returned an EC50 of 7.5 nM. Under `Cn1ccc2cc(Cl)c(C(=O)N3COc4c(cccc4-c4cc(N5CCOCC5)c(C(=O)O)cc4F)C3)cc21` [Compound 13-12, 4-[3-(5-Chloro-1-methylindole-6-carbonyl)-2,4-dihydro-1,3-benzoxazin-8-yl]-5-fluoro-2-morpholin-4-ylbenzoic acid] stands 17 nM.

In turn, `Cn1ccc2c(C(=O)N3COc4c(cccc4-c4cc(N5CCOCC5)c(C(=O)O)cc4F)C3)c(Cl)cnc21` [Compound 13-13, 4-[3-(5-Chloro-1-methylpyrrolo[2,3-b]pyridine-4-carbonyl)-2,4-dihydro-1,3-benzoxazin-8-yl]-5-fluoro-2-morpholin-4-ylbenzoic acid] returned an EC50 of 7.1 nM.

Molecule `O=C(O)c1cc(F)c(-c2cccc3c2OCN(C(=O)c2c(Cl)ccc4cc(Cl)cnc24)C3)cc1N1CCOCC1` [Compound 13-14, 4-[3-(3,7-Dichloroquinoline-8-carbonyl)-2,4-dihydro-1,3-benzoxazin-8-yl]-5-fluoro-2-morpholin-4-ylbenzoic acid] displayed an EC50 of 13 nM.
